Laboratory results from patent US5559096A, “Pharmaceutical compositions against gastric disorders” (Applied Microbiology, Inc., priority 1991, dated 1996).
Positions of bridges follow the written chain, without caps; N, C: chain ends. Non-standard residues stand in square brackets, D forms with d. Primed or numbered codes have the meaning given here. No end group written: not given here. Dhb′ = not defined here; Abu = CC[C@H](N)C(=O)O; Dha = C=C(N)C(=O)O

Legend:
Helicobacter pylori [1] = test: Kill time assay: effect of citrate on antimicrobial activity (microbe survival); type: cell-based; settings: Citrate 10 mM; for Mean Counts CFU/ml 1 min: 1 min after inoculation; for Mean Counts CFU/ml 5 min: 5 min after inoculation; for Mean Counts CFU/ml 30 min: 30 min after inoculation
Description: A kill time assay was carried out to determine the effect of citrate on antimicrobial activity. Microbe survival was assessed after treatment with bacteriocin alone and bacteriocin plus citrate. The effect of citrate alone was also measured. Survival was measured at 1,5 and 30 minutes after inoculation. Activity is expressed as the mean number of counts of colony forming units (CFU) per ml.

Helicobacter pylori [2] = test: Kill time at 4 times the average MIC; type: cell-based; settings: time taken to reduce microbe levels to <200 viable organisms; drug concentration 4 times the average MIC
Description: Kill time was calculated as the time taken to reduce microbe levels to <200 viable organisms using a drug concentration equal to 4 times the average MIC value for the test compound.

H.pylori NCTC 11916 = test: MIC by spiral plater, H.pylori NCTC 11916; type: cell-based, Helicobacter pylori; settings: H.pylori NCTC 11916, human strain
Description: (§1) The Minimum Inhibitory Concentration (MIC) of bacteriocin antimicrobial agents against a human strains of H.pylori (H.pylori NCTC 11916 and NCTC 11637) were assessed using a spiral plater and automatic agar plate pourer, according to the method of Wallace A. S. and Corkill J. E. (J. Microbial. Methods, 10, 303-310, 1989). MIC values were calculated according to the equation for the Archimedes spiral.

H.pylori NCTC 11637 = test: MIC by spiral plater, H.pylori NCTC 11637; type: cell-based, Helicobacter pylori; settings: H.pylori NCTC 11637, human strain
Description: as §1

[3] = Initial Inoculum 8.92 × 10^4, Ambicin N 300 ppm

Ambicin N: purified form of nisin made available by Applied Microbiology Inc. under the trade name AMBICIN N (I[Dhb′]AI[Dha]LC[Abu]PGCK[Abu]GALMGCNMK[Abu]A[Abu]CHCSIHV[Dha]K; thioether 8-11, 13-19, 23-26, 25-28, 3-7; UniProt P13068 24-57, looked up)
Mean Counts CFU/ml 1 min (Helicobacter pylori [1]; [3]): 6.31 × 10^4 CFU/ml
Mean Counts CFU/ml 5 min (Helicobacter pylori [1]; [3]): 5.71 × 10^4 CFU/ml
Mean Counts CFU/ml 30 min (Helicobacter pylori [1]; [3]): 4.72 × 10^4 CFU/ml
Kill Time (Helicobacter pylori [2]): > 30
MIC Value NCTC 11916 (H.pylori NCTC 11916): 50 to 300 µg/mL
MIC Value NCTC 11637 (H.pylori NCTC 11637): 50 to 300 µg/mL

O=C(O)CC(O)(CC(=O)O)C(=O)O [Citrate]
Mean Counts CFU/ml 1 min (Helicobacter pylori [1]; Initial Inoculum 2.39 × 10^5): 1.59 × 10^4 CFU/ml
Mean Counts CFU/ml 1 min (Helicobacter pylori [1]; [3]): 7.98 × 10^4 CFU/ml
Mean Counts CFU/ml 5 min (Helicobacter pylori [1]; Initial Inoculum 2.39 × 10^5): 1.42 × 10^4 CFU/ml
Mean Counts CFU/ml 5 min (Helicobacter pylori [1]; [3]): 8.64 × 10^4 CFU/ml
Mean Counts CFU/ml 30 min (Helicobacter pylori [1]; Initial Inoculum 2.39 × 10^5): 1.95 × 10^4 CFU/ml
Mean Counts CFU/ml 30 min (Helicobacter pylori [1]; [3]): 6.92 × 10^4 CFU/ml

Gramicidin
Mean Counts CFU/ml 1 min (Helicobacter pylori [1]; Initial Inoculum 2.39 × 10^5): 7.69 × 10^3 CFU/ml
Mean Counts CFU/ml 5 min (Helicobacter pylori [1]; Initial Inoculum 2.39 × 10^5): 1.44 × 10^4 CFU/ml
Mean Counts CFU/ml 30 min (Helicobacter pylori [1]; Initial Inoculum 2.39 × 10^5): 1.35 × 10^4 CFU/ml
Kill Time (Helicobacter pylori [2]): > 30
MIC Value NCTC 11916 (H.pylori NCTC 11916): 0.5 to 3.0 µg/mL
MIC Value NCTC 11637 (H.pylori NCTC 11637): 1.0 to 3.5 µg/mL

CC(C)C[C@@H]1NC(=O)[C@H](CCCN)NC(=O)[C@H](C(C)C)NC(=O)[C@H](Cc2ccc(O)cc2)N[C@@H](CCC(=O)O)C(=O)N[C@@H](CC(N)=O)C(=O)[C@@H](Cc2ccccc2)NC(=O)[C@H](Cc2ccccc2)NC(=O)[C@@H]2CCCN2C(=O)[C@@H](Cc2ccccc2)NC1=O [Tyrothricin]
Mean Counts CFU/ml 1 min (Helicobacter pylori [1]; Initial Inoculum 2.39 × 10^5): 2.55 × 10^4 CFU/ml
Mean Counts CFU/ml 5 min (Helicobacter pylori [1]; Initial Inoculum 2.39 × 10^5): 1.77 × 10^4 CFU/ml
Mean Counts CFU/ml 30 min (Helicobacter pylori [1]; Initial Inoculum 2.39 × 10^5): 1.78 × 10^4 CFU/ml
Kill Time (Helicobacter pylori [2]): < 1
MIC Value NCTC 11916 (H.pylori NCTC 11916): 1.0 to 4.0 µg/mL
MIC Value NCTC 11637 (H.pylori NCTC 11637): 1.0 to 5.0 µg/mL
